Measured values taken from patent US4318847A, “Physiologically active tetrapeptides” (Zaidan Hojin Biseibutsu Kagaku Kenkyu Kai, priority 1979, dated 1982).
Where a SMILES comes first, the peptide text is derived from it. The star is where a group is joined. X1 = CC(C)C[C@@H](N)[C@H](O)C(=O)*

How the values were obtained:
Type in all cases: biochemical
aminopeptidase A (AP-A) = molecular target: T1, aminopeptidase A (AP-A) (Homo sapiens, UniProt Q07075); experiment: AP-A (E.C. 3,4,11,7) inhibition assay; details: L-α-glutamyl-β-naphthylamide substrate, pH 7.0, 37° C., 30 minutes; read-out: IC/50 AP--A: amount of the peptide to inhibit the intact activity of the target enzyme by 50% (converted)
T1 construct: an AP-A solution which was obtained by ammonium sulfate fractionation according to the method of Nagatsu et al; from tissue
T1 sequence (Q07075 whole entry): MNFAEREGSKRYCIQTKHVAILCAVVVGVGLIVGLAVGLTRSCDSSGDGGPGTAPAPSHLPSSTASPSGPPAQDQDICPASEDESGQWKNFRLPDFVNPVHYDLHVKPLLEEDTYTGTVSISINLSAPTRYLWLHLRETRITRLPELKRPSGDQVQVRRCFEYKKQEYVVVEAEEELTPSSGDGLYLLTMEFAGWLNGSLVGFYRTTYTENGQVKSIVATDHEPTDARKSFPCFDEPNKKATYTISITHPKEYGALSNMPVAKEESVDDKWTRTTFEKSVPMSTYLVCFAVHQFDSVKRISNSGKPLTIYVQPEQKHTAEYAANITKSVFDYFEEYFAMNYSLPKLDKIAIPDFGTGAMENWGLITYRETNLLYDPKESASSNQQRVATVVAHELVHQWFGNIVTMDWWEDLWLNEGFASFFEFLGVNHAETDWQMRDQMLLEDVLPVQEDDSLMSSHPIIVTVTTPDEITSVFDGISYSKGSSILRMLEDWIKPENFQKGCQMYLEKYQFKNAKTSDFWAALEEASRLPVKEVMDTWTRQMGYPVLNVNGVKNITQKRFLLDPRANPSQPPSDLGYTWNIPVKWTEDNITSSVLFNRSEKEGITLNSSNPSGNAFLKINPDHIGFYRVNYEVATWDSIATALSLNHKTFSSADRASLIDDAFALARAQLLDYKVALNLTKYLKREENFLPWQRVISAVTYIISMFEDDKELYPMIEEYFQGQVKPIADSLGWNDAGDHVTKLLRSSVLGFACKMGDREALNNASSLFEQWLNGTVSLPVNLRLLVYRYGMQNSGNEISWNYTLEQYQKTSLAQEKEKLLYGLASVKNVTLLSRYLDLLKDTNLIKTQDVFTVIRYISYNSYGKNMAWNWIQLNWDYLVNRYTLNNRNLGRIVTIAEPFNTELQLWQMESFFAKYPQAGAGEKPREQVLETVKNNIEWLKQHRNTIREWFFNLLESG
Procedure: That is, 0.25 ml of 2 mM L-α-glutamyl-β-naphthylamide, 0.54 ml of 0.1 M Tris-HCl buffer, pH 7.0, 0.01 ml of 0.1 M calcium chloride and 0.1 ml of a test sample in water were mixed and kept at 37° C. for 3 minutes. The reaction was initiated by addition of 0.1 ml of an AP-A solution which was obtained by ammonium sulfate fractionation according to the method of Nagatsu et al. After incubation at 37° C. for 30 minutes, 1 ml of 1.0 M acetate buffer, pH 4.2, containing 1.0 mg/ml Garnet GBC (orthoaminoazotoluene diazonium salt) and 10% Tween 20 (Atlas Chemical Co., U.S.A.) was added to the reaction solution and then allowed to stand at room temperature for 15 minutes. The absorbance of the test solution (a) was measured at 530 nm. The control solution without the test sample was used as the blank test (absorbance (b)). The inhibition percentage on aminopeptidase A was calculated as [(b-a)/b]x100.

[1] = molecular target: T2, leucine aminopeptidase (Leu-AP) (Sus scrofa, UniProt P28839); experiment: Leu-AP (E.C. 3,4,11,1) inhibition assay; details: Leu-AP (Boehringer-Mannheim), leucyl-β-naphthylamide substrate, pH 7.6, 37° C., 30 minutes; read-out: IC/50 Leu--AP: amount of the peptide to inhibit the intact activity of the target enzyme by 50% (converted)
T2 construct: purchased Boehringer-Mannheim Co
T2 sequence (P28839 1-519): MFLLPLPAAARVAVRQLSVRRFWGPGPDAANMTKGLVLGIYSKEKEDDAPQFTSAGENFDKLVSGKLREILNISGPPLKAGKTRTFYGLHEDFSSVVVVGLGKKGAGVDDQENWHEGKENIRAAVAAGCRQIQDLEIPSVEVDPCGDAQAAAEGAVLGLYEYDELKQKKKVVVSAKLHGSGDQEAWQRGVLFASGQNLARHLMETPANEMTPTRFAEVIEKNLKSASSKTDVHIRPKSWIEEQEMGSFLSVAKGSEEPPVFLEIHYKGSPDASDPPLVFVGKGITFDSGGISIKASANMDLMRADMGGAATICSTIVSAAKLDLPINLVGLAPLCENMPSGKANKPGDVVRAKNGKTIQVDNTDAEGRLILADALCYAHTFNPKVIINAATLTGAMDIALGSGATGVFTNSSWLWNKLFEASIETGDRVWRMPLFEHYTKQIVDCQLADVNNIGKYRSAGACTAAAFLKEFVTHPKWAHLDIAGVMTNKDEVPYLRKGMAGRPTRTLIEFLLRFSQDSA
Procedure: For enzyme assay, 0.25 ml of 2 mM […], 0.6 ml of 0.1 M Tris-HCl buffer, pH 7.6, and 0.1 ml of an aqueous solution containing a test compound were mixed and allowed to stand at 37° C. for 3 minutes. After a 20-fold dilution of Leu-AP (Boehringer-Mannheim Co.) in 0.1 M Tris-HCl buffer, pH 7.6 (0.05 ml) was added to the solution, the reaction was performed at 37° C. for 30 minutes. The inhibition percentage was measured as detailed in (1).

[2] = molecular target: glycylhistidyllysine tripeptidylaminopeptidase (Gly-His-Lys-AP); experiment: Gly-His-Lys-AP inhibition assay; details: enzyme from FM3A cells (mouse mammary tumor), Hanks solution pH 7.2, 37° C., 30 minutes
Procedure: For enzyme assay, 0.25 ml of 0.5 mM glycyl-L-α-histidyl-L-α-lysyl-β-naphthylamide, 0.62 ml of the Hanks solution, pH 7.2, and 0.1 ml of an aqueous solution of a substance to be tested were combined and maintained at 37° C. for 3 minutes. Gly-His-Lys-AP solution (0.03 ml) which was purified from the FM3A cells (a line of culture cells derived from mouse mammary tumor) by the method described in the reference of (4) was added to the solution and incubated at 37° C. for 30 minutes. The inhibition percentage was calculated as shown in (1).
Gly-His-Lys -β-naphthylamide used above was prepared as follows: to a solution containing 1 g of Gly-His-Lys-acetate (Buchem Fine Chemicals Co.) and 3.0 g of sodium bicarbonate in 60 ml of distilled water, 2.13 ml of Z-Cl was added dropwise under cooling with ice and then stirred for 3 hours. The same treatment as detailed above in Experiment 1-(7) was performed to give 605.8 mg of the Z-derivative of the tripeptide. […]

[3] = molecular target: glycylprolylleucine tripeptidylaminopeptidase (Gly-Pro-Leu-AP); experiment: Gly-Pro-Leu-AP inhibition assay; details: enzyme from cell membrane fraction of rat liver, Hanks solution pH 7.2, 37° C., 30 minutes
Procedure: According to the method of Aoyagi et al. (T. Aoyagi et al: BIOCHIMICA ET BIOPHYSICA ACTA 452, 131-143(1976)), after a reaction mixture consisting of 0.25 ml of 2 mM glycyl-L-α-prolyl-L-α-leucyl-β-naphthylamide (Buchem Fine Chemicals Co.), 0.6 ml of the Hanks solution, pH 7.2, and 0.1 ml of an aqueous test solution was kept at 37° C. for 3 minutes, 0.05 ml of a Gly-Pro-Leu-AP that was purified from the cell membrane fraction of the rat liver was added and the reaction was carried out at 37° C. for 30 minutes. The same procedure as described in (1) was used for calculation of the inhibition percentage.
The Hanks solution listed above was prepared by dissolving 8.0 g sodium chloride, 0.4 g potassium chloride, 0.14 g calcium chloride, 0.10 g magnesium chloride, 0.06 g disodium-monohydrogen phosphate, 0.06 g monopotassium dihydrogen phosphate, 0.10 g magnesium sulfate and 1.0 g glucose in 1 liter of distilled water and adjusting the solution to pH 7.2 with solid sodium bicarbonate (about 350 mg).

SMILES | IC50 (aminopeptidase A (AP-A)) [µM] | IC50 [1] [µM] | IC/50 Gly--His--Lys--AP: amount of the peptide to inhibit the intact activity of the target enzyme by 50% [2] [µg/mL] | IC/50 Gly--Pro--Leu--AP: amount of the peptide to inhibit the intact activity of the target enzyme by 50% [3] [µg/mL]
CC(C)C[C@@H](N)[C@H](O)C(=O)N[C@@H](C)C(=O)N[C@@H](C)C(=O)N[C@@H](CC(=O)O)C(=O)O [X--Ala--Ala--Asp] | > 597 | > 597 | – | –
CC(C)C[C@@H](N)[C@H](O)C(=O)N[C@@H](CC(=O)O)C(=O)O [X--Asp] | > 905 | 105 | – | –
CC(C)C[C@@H](N)[C@H](O)C(=O)N[C@@H](CCC(=O)O)C(=O)N[C@H](C(=O)N[C@@H](CC(=O)O)C(=O)O)C(C)C [X--Glu--Val--Asp, (2S,3R)-AHMHA-Glu-Val-Asp] | 3.96 | 79.3 | 2.0 | 6
CC(C)C[C@H](NC(=O)[C@@H](O)[C@H](N)CC(C)C)C(=O)N[C@H](C(=O)N[C@@H](CC(=O)O)C(=O)O)C(C)C [X--Leu--Val--Asp, (2S,3R)-AHMHA-Leu-Val-Asp] | 10.2 | 0.614 | – | –
CC(C)C[C@@H](N)[C@H](O)C(=O)N[C@@H](CCCCN)C(=O)N[C@H](C(=O)N[C@@H](CC(=O)O)C(=O)O)C(C)C [X--Lys--Val--Asp, (2S,3R)-AHMHA-Lys-Val-Asp] | 2.98 | 218 | – | –
CC(C)C[C@@H](N)[C@H](O)C(=O)N[C@@H](CCCCN)C(=O)N[C@H](C(=O)N[C@H](C(=O)O)C(C)C)C(C)C [X--Lys--Val--Val, (2S,3R)-AHMHA-Lys-Val-Val] | 3.9 | 369 | – | –
CC(C)C[C@@H](N)[C@H](O)C(=O)N1CCC[C@H]1C(=O)O [X--Pro] | 774 | 83.2 | – | –
CC(C)C[C@@H](N)[C@H](O)C(=O)N[C@H](C(=O)N[C@H](C(=O)N[C@@H](CC(=O)O)C(=O)O)C(C)C)[C@@H](C)O [X--Thr--Val--Asp, (2S,3R)-AHMHA-Thr-Val-Asp] | 0.315 | 5.25 | – | –
CC(C)C[C@@H](N)[C@H](O)C(=O)N[C@H](C(=O)N[C@@H](CC(=O)O)C(=O)O)C(C)C [X--Val--Asp] | 32 | 0.799 | – | –
CC(C)C[C@@H](N)[C@H](O)C(=O)N[C@H](C(=O)N[C@@H](CCC(=O)O)C(=O)N[C@@H](CC(=O)O)C(=O)O)C(C)C [X--Val--Glu--Asp, (2S,3R)-AHMHA-Val-Glu-Asp] | 15.9 | 0.198 | 100 | 15

More lines, now with the values ahead:

IC50 (aminopeptidase A (AP-A)) [µM] | IC50 [1] [µM] | IC/50 Gly--His--Lys--AP: amount of the peptide to inhibit the intact activity of the target enzyme by 50% [2] [µg/mL] | IC/50 Gly--Pro--Leu--AP: amount of the peptide to inhibit the intact activity of the target enzyme by 50% [3] [µg/mL] | SMILES
0.614 | 1.43 | – | – | CC(C)C[C@H](NC(=O)[C@@H](NC(=O)[C@@H](O)[C@H](N)CC(C)C)C(C)C)C(=O)N[C@@H](CC(=O)O)C(=O)O [X--Val--Leu--Asp, (2S,3R)-AHMHA-Val-Leu-Asp]
19.9 | 6.95 | – | – | CC(C)C[C@@H](N)[C@H](O)C(=O)N[C@H](C(=O)N[C@@H](CCCCN)C(=O)N[C@@H](CC(=O)O)C(=O)O)C(C)C [X--Val--Lys--Asp, (2S,3R)-AHMHA-Val-Lys-Asp]
2.1 | 2.1 | – | – | CC(C)C[C@@H](N)[C@H](O)C(=O)N[C@H](C(=O)N[C@H](C(=O)N[C@@H](CC(=O)O)C(=O)O)[C@@H](C)O)C(C)C [X--Val--Thr--Asp, (2S,3R)-AHMHA-Val-Thr-Asp]
1.18 | 0.727 | – | – | CC(C)C[C@@H](N)[C@H](O)C(=O)N[C@H](C(=O)N[C@H](C(=O)N[C@@H](Cc1ccccc1)C(=O)O)[C@@H](C)O)C(C)C [X--Val--Thr--Phe, (2S,3R)-AHMHA-Val-Thr-Phe]
26.2 | 38.8 | – | – | CC(C)C[C@@H](N)[C@H](O)C(=O)N[C@H](C(=O)N[C@H](C(=O)N[C@@H](CCCNC(=N)N)C(=O)O)C(C)C)C(C)C [X--Val--Val-- Arg, (2S,3R)-AHMHA-Val-Val-Arg]
4.09 | 4.5 | – | – | CC(C)C[C@@H](N)[C@H](O)C(=O)N[C@H](C(=O)N[C@H](C(=O)N[C@@H](CCC(=O)O)C(=O)O)C(C)C)C(C)C [X--Val--Val--Glu, reference compound]
43.1 | 65.6 | – | – | CC(C)C[C@@H](N)[C@H](O)C(=O)N[C@H](C(=O)N[C@H](C(=O)N[C@@H](CCCCN)C(=O)O)C(C)C)C(C)C [X--Val--Val--Lys, (2S,3R)-AHMHA-Val-Val-Lys]
14.2 | 4.34 | – | – | CC(C)C[C@@H](N)[C@H](O)C(=O)N[C@H](C(=O)N[C@H](C(=O)N[C@@H](Cc1ccccc1)C(=O)O)C(C)C)C(C)C [X--Val--Val--Phe, (2S,3R)-AHMHA-Val-Val-Phe]
76.7 | 5.91 | – | – | CC(C)C[C@@H](N)[C@H](O)C(=O)N[C@H](C(=O)N[C@H](C(=O)N1CCC[C@H]1C(=O)O)C(C)C)C(C)C [X--Val--Val--Pro, (2S,3R)-AHMHA-Val-Val-Pro]
5.86 | 7.6 | – | – | CC(C)C[C@@H](N)[C@H](O)C(=O)N[C@H](C(=O)N[C@H](C(=O)N[C@H](C(=O)O)[C@@H](C)O)C(C)C)C(C)C [X--Val--Val--Thr, (2S,3R)-AHMHA-Val-Val-Thr]
9.38 | 3.92 | – | – | CC(C)C[C@@H](N)[C@H](O)C(=O)N[C@H](C(=O)N[C@H](C(=O)N[C@H](C(=O)O)C(C)C)C(C)C)C(C)C [X--Val--Val--Val, (2S,3R)-AHMHA-Val-Val-Val]
31.4 | 7.32 | – | – | CC(C)C[C@@H](N)[C@H](O)C(=O)N[C@H](C(=O)N[C@H](C(=O)N[C@H](C(=O)N[C@@H](CC(=O)O)C(=O)O)C(C)C)C(C)C)C(C)C [X--Val--Val--Val--Asp] (X1-VVVD-OH)
10 | 2.5 | – | – | CC(C)C[C@@H](N)[C@H](O)C(=O)N[C@H](C(=O)N[C@H](C(=O)O)C(C)C)C(C)C [X--Val--Val]
864 | 1.92 | – | – | CC(C)C[C@@H](N)[C@H](O)C(=O)N[C@H](C(=O)O)C(C)C [X--Val]
